{
  "source": "patent US20020147237A1",
  "about": "“Preservation of bodily protein” (priority 2001, published 2002)",
  "key": {"[1]": {"tested_on": "anaesthetised piglet model", "experiment": "blood gas and hemodynamic variables in anaesthetised piglets during i.v. infusion", "assay_type": "in vivo", "conditions": "60 min", "description": "(§1) Food was withheld from the animals for twelve hours prior to the experiment, but they had free access to water. […] In addition, all animals were given an intravenous bolus of morphine 1 mg·kg^-1 and, following tracheotomy, pancuronium bromide 0.3 mg·kg^-1. […] After the last measurements, still under anaesthesia, the animals were killed with an overdose of potassium chloride. After induction of anaesthesia the animals were tracheotomised and ventilated through an 8 mm endotracheal tube (Mallincrodt Laboratories, Athlone, Ireland) with a Servo ventilator […] ([…], Solna, Sweden). Ventilation was maintained at 25 breaths per minute with a positive end-expiratory pressure of 5 cm of H2O. […] The body temperature was kept stable by means of a thermostat controlled heating pad and warmed intravenous infusions. After skin incisions, a catheter was introduced in the left external jugular vein and advanced to the right hepatic vein under fluoroscopic control. Its position was confirmed by a contrast injection. The right external jugular vein was used for placement of a central venous catheter and a 7F pulmonary artery thermodilution catheter. An arterial catheter was inserted in a subclavian branch and advanced to a central position. Through a small suprapubic incision, a urinary catheter was placed in the bladder. A cutdown was made to place an ultrasonic flow probe (Transonic Systems Inc., Ithaca, N.Y., USA) around the femoral artery and to cannulate the femoral vein for blood sampling. Arterial blood gases were analysed on an ABL300/OSM3 system (Radiometer, Copenhagen, Denmark). […] The column eluate was mixed with ninhydrin reagent for amino acid detection. […] Blood glucose was analysed on a Reflolux® II (Boehringer Mannheim, Germany), using the glucose-oxidase/peroxidase reaction. Arterial and hepatic venous blood was drawn for calculations of splanchnic blood flow. […] The mean value of at least three measurements was adopted. Calculation of splanchnic blood flow was carried out according to the constant dye infusion technique (10). […] Splanchnic plasma flow was calculated according to a formula derived from Fick's principle: [formula] […] Femoral artery plasma flow was calculated as blood flow (1-EVF). The turnover of amino acids, ammonium and urea were calculated as plasma flow times the arterio-venous plasma concentration difference with negative values indicating release and positive values uptake. After anaesthesia and surgical preparation the piglets were allowed a stabilisation period of one hour and randomly assigned to either Group 1 or Group 2."}, "[2]": {"tested_on": "anaesthetised piglet model", "experiment": "arterial plasma amino acid, NH4, urea and blood glucose concentrations in anaesthetised piglets", "assay_type": "in vivo", "conditions": "for arterial glutamine level after 60 minutes (in words): after one hour of infusion of the single substance", "description": "Food was withheld from the animals for twelve hours prior to the experiment, but they had free access to water. Anaesthesia was induced by an intramuscular injection of xylazine 2.2 mg·kg^-1, tiletamine 3 mg·kg^-1+zolazepam 3 mg·kg^-1 and atropine 0.04 mg·kg^-1. In addition, all animals were given an intravenous bolus of morphine 1 mg·kg^-1 and, following tracheotomy, pancuronium bromide 0.3 mg·kg^-1. […] After the last measurements, still under anaesthesia, the animals were killed with an overdose of potassium chloride. After induction of anaesthesia the animals were tracheotomised and ventilated through an 8 mm endotracheal tube (Mallincrodt Laboratories, Athlone, Ireland) with a Servo ventilator […] ([…], Solna, Sweden). Ventilation was maintained at 25 breaths per minute with a positive end-expiratory pressure of 5 cm of H2O. […] The body temperature was kept stable by means of a thermostat controlled heating pad and warmed intravenous infusions. After skin incisions, a catheter was introduced in the left external jugular vein and advanced to the right hepatic vein under fluoroscopic control. Its position was confirmed by a contrast injection. The right external jugular vein was used for placement of a central venous catheter and a 7F pulmonary artery thermodilution catheter. An arterial catheter was inserted in a subclavian branch and advanced to a central position. Through a small suprapubic incision, a urinary catheter was placed in the bladder. A cutdown was made to place an ultrasonic flow probe (Transonic Systems Inc., Ithaca, N.Y., USA) around the femoral artery and to cannulate the femoral vein for blood sampling. Arterial blood gases were analysed on an ABL300/OSM3 system (Radiometer, Copenhagen, Denmark). […] The column eluate was mixed with ninhydrin reagent for amino acid detection. […] Blood glucose was analysed on a Reflolux® II (Boehringer Mannheim, Germany), using the glucose-oxidase/peroxidase reaction. Arterial and hepatic venous blood was drawn for calculations of splanchnic blood flow. […] The mean value of at least three measurements was adopted. After anaesthesia and surgical preparation the piglets were allowed a stabilisation period of one hour and randomly assigned to either Group 1 or Group 2."}, "splanchnic area": {"tested_on": "splanchnic area", "experiment": "splanchnic turnover (plasma flow times arterio-venous difference; negative = release, positive = uptake)", "assay_type": "in vivo, piglets", "conditions": "60 min", "description": "as §1"}, "hind leg skeletal muscle": {"tested_on": "hind leg skeletal muscle", "experiment": "hind leg turnover (plasma flow times arterio-venous difference; negative = release, positive = uptake)", "assay_type": "in vivo, piglets", "conditions": "Group 1; 60 min; Dosage 1: NH4+ 12.3 μmol·kg^−1·min^−1 i.v. alone", "description": "Food was withheld from the animals for twelve hours prior to the experiment, but they had free access to water. […] In addition, all animals were given an intravenous bolus of morphine 1 mg·kg^-1 and, following tracheotomy, pancuronium bromide 0.3 mg·kg^-1. […] After the last measurements, still under anaesthesia, the animals were killed with an overdose of potassium chloride. After induction of anaesthesia the animals were tracheotomised and ventilated through an 8 mm endotracheal tube (Mallincrodt Laboratories, Athlone, Ireland) with a Servo ventilator […] ([…], Solna, Sweden). […] The body temperature was kept stable by means of a thermostat controlled heating pad and warmed intravenous infusions. After skin incisions, a catheter was introduced in the left external jugular vein and advanced to the right hepatic vein under fluoroscopic control. Its position was confirmed by a contrast injection. The right external jugular vein was used for placement of a central venous catheter and a 7F pulmonary artery thermodilution catheter. An arterial catheter was inserted in a subclavian branch and advanced to a central position. Through a small suprapubic incision, a urinary catheter was placed in the bladder. A cutdown was made to place an ultrasonic flow probe (Transonic Systems Inc., Ithaca, N.Y., USA) around the femoral artery and to cannulate the femoral vein for blood sampling. Arterial blood gases were analysed on an ABL300/OSM3 system (Radiometer, Copenhagen, Denmark). […] The column eluate was mixed with ninhydrin reagent for amino acid detection. […] Blood glucose was analysed on a Reflolux® II (Boehringer Mannheim, Germany), using the glucose-oxidase/peroxidase reaction. Arterial and hepatic venous blood was drawn for calculations of splanchnic blood flow. […] The mean value of at least three measurements was adopted. […] Femoral artery plasma flow was calculated as blood flow (1-EVF). The turnover of amino acids, ammonium and urea were calculated as plasma flow times the arterio-venous plasma concentration difference with negative values indicating release and positive values uptake. After anaesthesia and surgical preparation the piglets were allowed a stabilisation period of one hour and randomly assigned to either Group 1 or Group 2."}, "[3]": {"conditions": "Group 1, Dosage 1: NH4+ 12.3 μmol·kg^−1·min^−1 i.v. alone"}, "[4]": {"conditions": "Group 1, 60 min, Dosage 1: NH4+ 12.3 μmol·kg^−1·min^−1 i.v. alone"}, "[5]": {"conditions": "Group 2, Dosage 1: α-ketoglutarate 2.85 μmol·kg^−1·min^−1 i.v. alone"}, "[6]": {"conditions": "Group 2, 60 min, Dosage 1: α-ketoglutarate 2.85 μmol·kg^−1·min^−1 i.v. alone"}},
  "data": [
    {"smiles": "Cl.N", "note": "[NH4Cl, ammonium chloride]", "values": [
      {"measurement": "Arterial pH", "setting": "[1]; [3]", "result": "7.43 ± 0.01", "unit": "a"},
      {"measurement": "C.O.", "setting": "[1]; [3]", "result": "138 ± 17", "unit": "mL/min/kg"},
      {"measurement": "Leg blood flow", "setting": "[1]; [3]", "result": "4.7 ± 0.4", "unit": "mL/min/kg"},
      {"measurement": "PaCO2", "setting": "[1]; [3]", "result": "5.18 ± 0.06", "unit": "kPa"},
      {"measurement": "Spl. blood flow", "setting": "[1]; [3]", "result": "43 ± 5", "unit": "mL/min/kg"},
      {"measurement": "Leg blood flow", "setting": "[1]; Group 1, Dosage 1: NH4+ 12.3 μmol·kg^−1·min^−1 i.v. alone, listed as ammonium chloride", "result": "4.7 ± 0.4", "unit": "a ml · min^−1 · kg^−1"},
      {"measurement": "Glucose concentration", "setting": "[2]; [4]", "result": "5.5 ± 0.5", "unit": "mmol/L"},
      {"measurement": "arterial Alanine concentration", "setting": "[2]; [4]", "result": "412 ± 44", "unit": "a μmol · L^−1"},
      {"measurement": "arterial Arginine concentration", "setting": "[2]; [4]", "result": "80 ± 8", "unit": "µmol/L"},
      {"measurement": "arterial Glutamate concentration", "setting": "[2]; [4]", "result": "191 ± 20", "unit": "µmol/L"},
      {"measurement": "arterial Glutamine concentration", "setting": "[2]; [4]", "result": "450 ± 26", "unit": "a μmol · L^−1"},
      {"measurement": "arterial NH4^+ concentration", "setting": "[2]; [4]", "result": "135 ± 14", "unit": "a μmol · L^−1"},
      {"measurement": "arterial Total AA concentration", "setting": "[2]; [4]", "result": "3034 ± 139", "unit": "µmol/L"},
      {"measurement": "arterial Urea concentration", "setting": "[2]; [4]", "result": "3.4 ± 0.3", "unit": "mmol/L"},
      {"measurement": "arterial glutamine level after 60 minutes (in words)", "setting": "[2]", "result": "increased"},
      {"measurement": "Alanine turnover, splanchinc", "setting": "splanchnic area; [3]", "result": "2.22 ± 0.28", "unit": "µmol/min/kg"},
      {"measurement": "Arginine turnover, splanchinc", "setting": "splanchnic area; [3]", "result": "-0.23 ± 0.10", "unit": "µmol/min/kg"},
      {"measurement": "FE (%)-NH4^+, splanchinc", "setting": "splanchnic area; [3]", "result": "81 ± 4", "unit": "a %"},
      {"measurement": "Glutamate turnover, splanchinc", "setting": "splanchnic area; [3]", "result": "-4.32 ± 0.28", "unit": "µmol/min/kg"},
      {"measurement": "Glutamine turnover, splanchinc", "setting": "splanchnic area; [3]", "result": "2.59 ± 0.56", "unit": "µmol/min/kg"},
      {"measurement": "NH4^+ turnover, splanchinc", "setting": "splanchnic area; [3]", "result": "3.09 ± 0.28", "unit": "a μmol·min^−1·kg^−1"},
      {"measurement": "Total AA turnover, splanchinc", "setting": "splanchnic area; [3]", "result": "3.93 ± 2.08", "unit": "µmol/min/kg"},
      {"measurement": "Urea turnover, splanchinc", "setting": "splanchnic area; [3]", "result": "-3.2 ± 1.4", "unit": "µmol/min/kg"},
      {"measurement": "Alanine turnover, hind leg", "setting": "hind leg skeletal muscle", "result": "-0.13 ± 0.04", "unit": "µmol/min/kg"},
      {"measurement": "Arginine turnover, hind leg", "setting": "hind leg skeletal muscle", "result": "0.01 ± 0.005", "unit": "µmol/min/kg"},
      {"measurement": "FE (%)-NH4^+, hind leg", "setting": "hind leg skeletal muscle", "result": "46 ± 3", "unit": "a %"},
      {"measurement": "Glutamate turnover, hind leg", "setting": "hind leg skeletal muscle", "result": "0.22 ± 0.03", "unit": "µmol/min/kg"},
      {"measurement": "Glutamine turnover, hind leg", "setting": "hind leg skeletal muscle", "result": "-0.09 ± 0.04", "unit": "µmol/min/kg"},
      {"measurement": "NH4^+ turnover, hind leg", "setting": "hind leg skeletal muscle", "result": "0.22 ± 0.03", "unit": "a μmol·min^−1·kg^−1"},
      {"measurement": "Total AA turnover, hind leg", "setting": "hind leg skeletal muscle", "result": "0.12 ± 0.23", "unit": "µmol/min/kg"},
      {"measurement": "Urea turnover, hind leg", "setting": "hind leg skeletal muscle", "result": "0.2 ± 0.2", "unit": "µmol/min/kg"}
    ]},
    {"smiles": "O=C(O)CCC(=O)C(=O)O", "note": "[α-KGA, α-ketoglutaric acid]", "values": [
      {"measurement": "Arterial pH", "setting": "[1]; [5]", "result": "7.47 ± 0.01"},
      {"measurement": "C.O.", "setting": "[1]; [5]", "result": "144 ± 10", "unit": "a ml · min^−1 kg^−1"},
      {"measurement": "PaCO2", "setting": "[1]; [5]", "result": "5.27 ± 0.06", "unit": "kPa"},
      {"measurement": "Glucose concentration", "setting": "[2]; [6]", "result": "5.6 ± 0.4", "unit": "mmol/L"},
      {"measurement": "arterial Alanine concentration", "setting": "[2]; [6]", "result": "462 ± 34", "unit": "µmol/L"},
      {"measurement": "arterial Arginine concentration", "setting": "[2]; [6]", "result": "75 ± 5", "unit": "µmol/L"},
      {"measurement": "arterial Glutamate concentration", "setting": "[2]; [6]", "result": "264 ± 32", "unit": "µmol/L"},
      {"measurement": "arterial Glutamine concentration", "setting": "[2]; [6]", "result": "361 ± 24", "unit": "z μmol · L^−1"},
      {"measurement": "arterial Urea concentration", "setting": "[2]; [6]", "result": "2.7 ± 0.2", "unit": "mmol/L"},
      {"measurement": "drop of arterial glutamine concentration compared to the baseline level", "setting": "[2]; Group 2, after one hour of α-KGA infusion alone", "result": "9±2", "unit": "%"},
      {"measurement": "arterial glutamine level after 60 minutes (in words)", "setting": "[2]", "result": "decreased"},
      {"measurement": "FE (%)-NH4^+, splanchinc", "setting": "splanchnic area; [5]", "result": "28 ± 10", "unit": "%"}
    ]}
  ]
}
